Each block holds one compound with its values, some of them ahead of it.
Tests used:
[1] = biological target: T1, Serine/threonine-protein kinase Nek9 (Homo sapiens, UniProt Q8TD19); assay: Inhibition of NEK9 (unknown origin) assessed as dissociation constant
[2] = biological target: Serine/threonine-protein kinase Nek3 (Homo sapiens, UniProt P51956); assay: Inhibition of NEK3 (unknown origin) assessed as dissociation constant
[3] = biological target: Serine/threonine-protein kinase Nek1 (Homo sapiens, UniProt Q96PY6); assay: Inhibition of NEK1 (unknown origin) assessed as dissociation constant
[4] = biological target: T1, Serine/threonine-protein kinase Nek9; assay: Inhibition of NEK9 (unknown origin)
[5] = biological target: Serine/threonine-protein kinase Nek4 (Homo sapiens) (UniProt P51957); assay: Inhibition of NEK4 (unknown origin) at 10 uM relative to control
[6] = biological target: Serine/threonine-protein kinase Nek6 (Homo sapiens) (UniProt Q9HC98); assay: Inhibition of NEK6 (unknown origin) at 10 uM relative to control
[7] = biological target: T2, Serine/threonine-protein kinase Nek3 (Homo sapiens) (UniProt P51956); assay: Inhibition of NEK3 (unknown origin) at 10 uM relative to control
T2 sequence (whole entry): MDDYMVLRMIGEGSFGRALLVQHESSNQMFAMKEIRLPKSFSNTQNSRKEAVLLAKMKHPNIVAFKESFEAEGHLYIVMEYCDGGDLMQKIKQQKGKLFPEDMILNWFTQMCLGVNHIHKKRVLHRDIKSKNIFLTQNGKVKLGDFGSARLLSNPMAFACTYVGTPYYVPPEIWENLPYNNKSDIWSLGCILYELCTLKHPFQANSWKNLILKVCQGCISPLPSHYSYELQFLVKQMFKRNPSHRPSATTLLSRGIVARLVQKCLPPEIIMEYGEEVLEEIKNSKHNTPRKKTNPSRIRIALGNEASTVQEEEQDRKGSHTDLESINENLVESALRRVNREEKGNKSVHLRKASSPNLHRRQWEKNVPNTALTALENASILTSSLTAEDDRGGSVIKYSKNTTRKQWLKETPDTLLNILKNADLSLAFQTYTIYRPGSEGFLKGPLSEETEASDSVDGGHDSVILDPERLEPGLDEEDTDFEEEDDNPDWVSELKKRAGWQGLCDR

[8] = biological target: Serine/threonine-protein kinase Nek7 (Homo sapiens) (UniProt Q8TDX7); assay: Inhibition of NEK7 (unknown origin) at 10 uM relative to control
[9] = biological target: T3, Serine/threonine-protein kinase Nek9 (Homo sapiens) (UniProt Q8TD19); assay: Inhibition of NEK9 (unknown origin) at 10 uM relative to control
T3 sequence (whole entry): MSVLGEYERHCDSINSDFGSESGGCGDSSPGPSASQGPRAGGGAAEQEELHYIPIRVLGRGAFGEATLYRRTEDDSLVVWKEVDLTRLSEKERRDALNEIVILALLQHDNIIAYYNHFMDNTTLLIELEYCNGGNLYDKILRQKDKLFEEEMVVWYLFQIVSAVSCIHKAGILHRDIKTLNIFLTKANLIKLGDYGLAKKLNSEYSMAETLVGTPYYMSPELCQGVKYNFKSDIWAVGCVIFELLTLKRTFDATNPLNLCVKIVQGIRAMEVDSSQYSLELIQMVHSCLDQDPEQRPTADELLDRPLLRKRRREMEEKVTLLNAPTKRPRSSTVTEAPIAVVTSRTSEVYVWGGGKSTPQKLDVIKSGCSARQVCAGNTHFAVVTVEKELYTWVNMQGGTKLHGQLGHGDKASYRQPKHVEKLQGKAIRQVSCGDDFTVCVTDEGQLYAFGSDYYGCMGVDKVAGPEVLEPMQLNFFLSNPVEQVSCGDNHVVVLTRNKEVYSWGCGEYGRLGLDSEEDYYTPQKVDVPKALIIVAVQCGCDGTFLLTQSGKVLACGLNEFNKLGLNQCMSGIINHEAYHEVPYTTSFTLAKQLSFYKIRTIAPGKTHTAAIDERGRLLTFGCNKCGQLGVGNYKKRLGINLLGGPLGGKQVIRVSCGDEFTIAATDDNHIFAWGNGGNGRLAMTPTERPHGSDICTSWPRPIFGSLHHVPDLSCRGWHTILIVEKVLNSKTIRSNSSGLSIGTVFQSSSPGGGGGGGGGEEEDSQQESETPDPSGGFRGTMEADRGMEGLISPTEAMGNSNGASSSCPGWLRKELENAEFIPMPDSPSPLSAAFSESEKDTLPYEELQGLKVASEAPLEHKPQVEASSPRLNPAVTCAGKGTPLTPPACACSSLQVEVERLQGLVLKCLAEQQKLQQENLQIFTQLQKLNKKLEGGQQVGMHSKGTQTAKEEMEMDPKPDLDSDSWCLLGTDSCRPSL

[10] = biological target: T4, Serine/threonine-protein kinase Nek2 (Homo sapiens) (UniProt P51955); assay: Inhibition of NEK2 (unknown origin) at 10 uM relative to control
T4 sequence (whole entry): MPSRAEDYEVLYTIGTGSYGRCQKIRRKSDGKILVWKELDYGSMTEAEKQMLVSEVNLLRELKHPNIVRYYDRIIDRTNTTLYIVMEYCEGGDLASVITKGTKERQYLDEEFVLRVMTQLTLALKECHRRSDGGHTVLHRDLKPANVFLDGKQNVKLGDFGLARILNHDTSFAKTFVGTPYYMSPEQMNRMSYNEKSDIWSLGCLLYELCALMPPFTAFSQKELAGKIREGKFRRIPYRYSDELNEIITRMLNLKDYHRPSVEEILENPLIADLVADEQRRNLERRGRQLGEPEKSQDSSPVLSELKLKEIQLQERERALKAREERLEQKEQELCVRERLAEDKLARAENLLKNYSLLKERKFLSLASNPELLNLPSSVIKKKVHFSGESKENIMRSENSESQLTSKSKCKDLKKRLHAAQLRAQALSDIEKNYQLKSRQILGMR

[11] = biological target: Serine/threonine-protein kinase Nek2 (Homo sapiens, UniProt P51955); assay: Inhibition of NEK2 (unknown origin) assessed as dissociation constant
[12] = biological target: T5, Serine/threonine-protein kinase Nek5 (Homo sapiens) (UniProt Q6P3R8); assay: Inhibition of NEK5 (unknown origin) at 10 uM relative to control
T5 sequence (whole entry): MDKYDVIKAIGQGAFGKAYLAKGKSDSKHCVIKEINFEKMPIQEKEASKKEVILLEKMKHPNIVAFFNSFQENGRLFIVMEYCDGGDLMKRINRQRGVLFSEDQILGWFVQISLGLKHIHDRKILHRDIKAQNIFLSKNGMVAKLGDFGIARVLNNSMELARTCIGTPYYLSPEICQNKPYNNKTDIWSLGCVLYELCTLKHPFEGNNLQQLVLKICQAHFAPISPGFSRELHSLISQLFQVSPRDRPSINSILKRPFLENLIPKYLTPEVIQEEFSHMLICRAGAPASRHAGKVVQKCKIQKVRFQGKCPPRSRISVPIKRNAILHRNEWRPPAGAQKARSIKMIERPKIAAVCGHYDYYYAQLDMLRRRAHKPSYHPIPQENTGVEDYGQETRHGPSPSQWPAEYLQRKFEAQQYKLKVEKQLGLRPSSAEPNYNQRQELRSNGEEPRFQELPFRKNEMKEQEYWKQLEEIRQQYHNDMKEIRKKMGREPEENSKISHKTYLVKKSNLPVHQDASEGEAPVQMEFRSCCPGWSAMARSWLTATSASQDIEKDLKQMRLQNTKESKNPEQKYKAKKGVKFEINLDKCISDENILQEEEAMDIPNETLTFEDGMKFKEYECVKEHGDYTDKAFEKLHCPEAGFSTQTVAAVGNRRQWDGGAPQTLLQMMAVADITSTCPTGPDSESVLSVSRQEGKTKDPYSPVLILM

[13] = biological target: Serine/threonine-protein kinase Nek7 (Homo sapiens) (UniProt Q8TDX7); assay: Inhibition of NEK7 (unknown origin) at 3 uM relative to control
[14] = biological target: Serine/threonine-protein kinase Nek4 (Homo sapiens) (UniProt P51957); assay: Inhibition of NEK4 (unknown origin) at 100 nM relative to control
[15] = biological target: Serine/threonine-protein kinase Nek7 (Homo sapiens) (UniProt Q8TDX7); assay: Inhibition of NEK7 (unknown origin) at 100 nM relative to control
[16] = biological target: Serine/threonine-protein kinase Nek7 (Homo sapiens) (UniProt Q8TDX7); assay: Inhibition of NEK7 (unknown origin) at 1 uM relative to control
[17] = biological target: T4, Serine/threonine-protein kinase Nek2 (Homo sapiens); assay: Inhibition of NEK2 (unknown origin) at 1 uM relative to control
[18] = biological target: T6, Serine/threonine-protein kinase Nek1 (Homo sapiens) (UniProt Q96PY6); assay: Inhibition of NEK1 (unknown origin) at 100 nM relative to control
T6 sequence (whole entry): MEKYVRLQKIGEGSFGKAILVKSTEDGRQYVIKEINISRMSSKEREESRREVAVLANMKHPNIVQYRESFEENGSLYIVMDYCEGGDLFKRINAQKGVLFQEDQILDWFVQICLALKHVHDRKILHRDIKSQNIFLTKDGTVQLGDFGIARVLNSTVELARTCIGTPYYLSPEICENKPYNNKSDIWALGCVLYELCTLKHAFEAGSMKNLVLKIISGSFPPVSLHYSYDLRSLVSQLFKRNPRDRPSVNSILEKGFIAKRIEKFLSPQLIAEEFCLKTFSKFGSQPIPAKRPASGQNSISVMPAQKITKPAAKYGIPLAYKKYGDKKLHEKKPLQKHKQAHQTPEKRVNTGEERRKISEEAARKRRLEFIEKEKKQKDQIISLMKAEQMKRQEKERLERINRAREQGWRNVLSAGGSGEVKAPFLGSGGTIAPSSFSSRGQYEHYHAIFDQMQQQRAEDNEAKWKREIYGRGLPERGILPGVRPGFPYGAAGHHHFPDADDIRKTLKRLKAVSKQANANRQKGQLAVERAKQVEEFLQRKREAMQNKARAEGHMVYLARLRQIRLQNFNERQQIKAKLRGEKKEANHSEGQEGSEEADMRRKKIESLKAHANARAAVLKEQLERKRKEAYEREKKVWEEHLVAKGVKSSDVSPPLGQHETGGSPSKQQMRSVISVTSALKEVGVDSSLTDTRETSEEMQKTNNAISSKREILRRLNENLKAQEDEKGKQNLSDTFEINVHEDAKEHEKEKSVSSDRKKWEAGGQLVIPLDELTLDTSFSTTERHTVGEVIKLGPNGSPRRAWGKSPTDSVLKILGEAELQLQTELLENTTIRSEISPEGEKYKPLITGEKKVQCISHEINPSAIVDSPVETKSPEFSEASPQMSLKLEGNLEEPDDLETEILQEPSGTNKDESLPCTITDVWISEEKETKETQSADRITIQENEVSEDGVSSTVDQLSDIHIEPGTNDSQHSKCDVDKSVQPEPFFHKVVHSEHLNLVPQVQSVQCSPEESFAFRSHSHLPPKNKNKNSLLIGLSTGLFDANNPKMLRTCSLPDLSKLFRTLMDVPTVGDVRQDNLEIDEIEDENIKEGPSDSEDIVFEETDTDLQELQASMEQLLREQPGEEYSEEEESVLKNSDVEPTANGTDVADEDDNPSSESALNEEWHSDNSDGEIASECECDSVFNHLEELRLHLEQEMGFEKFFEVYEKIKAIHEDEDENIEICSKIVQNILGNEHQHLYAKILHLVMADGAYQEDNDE

[19] = biological target: T3, Serine/threonine-protein kinase Nek9 (Homo sapiens); assay: Inhibition of NEK9 (unknown origin) at 1 uM relative to control
[20] = biological target: Serine/threonine-protein kinase Nek6 (Homo sapiens) (UniProt Q9HC98); assay: Inhibition of NEK6 (unknown origin) at 100 nM relative to control
[21] = biological target: Serine/threonine-protein kinase Nek6 (Homo sapiens) (UniProt Q9HC98); assay: Inhibition of NEK6 (unknown origin) at 1 uM relative to control
[22] = biological target: T3, Serine/threonine-protein kinase Nek9 (Homo sapiens); assay: Inhibition of NEK9 (unknown origin) at 100 nM relative to control
[23] = biological target: T4, Serine/threonine-protein kinase Nek2 (Homo sapiens); assay: Inhibition of NEK2 (unknown origin) at 100 nM relative to control
[24] = biological target: Mitogen-activated protein kinase kinase kinase 8 (Homo sapiens, UniProt P41279); assay: Inhibition of MAP3K8 (unknown origin)
Chain of Mitogen-activated protein kinase kinase kinase 8 (P41279 whole entry): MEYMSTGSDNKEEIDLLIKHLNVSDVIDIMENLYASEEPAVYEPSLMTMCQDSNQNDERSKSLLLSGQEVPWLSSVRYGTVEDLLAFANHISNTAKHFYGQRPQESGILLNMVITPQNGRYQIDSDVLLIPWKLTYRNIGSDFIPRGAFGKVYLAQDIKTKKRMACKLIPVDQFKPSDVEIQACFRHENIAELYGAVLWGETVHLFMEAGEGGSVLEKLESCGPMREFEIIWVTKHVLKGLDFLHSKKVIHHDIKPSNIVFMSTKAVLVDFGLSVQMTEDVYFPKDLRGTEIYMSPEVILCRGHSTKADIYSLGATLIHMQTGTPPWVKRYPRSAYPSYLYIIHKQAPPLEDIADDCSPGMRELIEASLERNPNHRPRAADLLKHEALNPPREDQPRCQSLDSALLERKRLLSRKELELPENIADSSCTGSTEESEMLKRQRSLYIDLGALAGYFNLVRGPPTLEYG

Chain of Serine/threonine-protein kinase Nek4 (Homo sapiens) (P51957 whole entry, looked up): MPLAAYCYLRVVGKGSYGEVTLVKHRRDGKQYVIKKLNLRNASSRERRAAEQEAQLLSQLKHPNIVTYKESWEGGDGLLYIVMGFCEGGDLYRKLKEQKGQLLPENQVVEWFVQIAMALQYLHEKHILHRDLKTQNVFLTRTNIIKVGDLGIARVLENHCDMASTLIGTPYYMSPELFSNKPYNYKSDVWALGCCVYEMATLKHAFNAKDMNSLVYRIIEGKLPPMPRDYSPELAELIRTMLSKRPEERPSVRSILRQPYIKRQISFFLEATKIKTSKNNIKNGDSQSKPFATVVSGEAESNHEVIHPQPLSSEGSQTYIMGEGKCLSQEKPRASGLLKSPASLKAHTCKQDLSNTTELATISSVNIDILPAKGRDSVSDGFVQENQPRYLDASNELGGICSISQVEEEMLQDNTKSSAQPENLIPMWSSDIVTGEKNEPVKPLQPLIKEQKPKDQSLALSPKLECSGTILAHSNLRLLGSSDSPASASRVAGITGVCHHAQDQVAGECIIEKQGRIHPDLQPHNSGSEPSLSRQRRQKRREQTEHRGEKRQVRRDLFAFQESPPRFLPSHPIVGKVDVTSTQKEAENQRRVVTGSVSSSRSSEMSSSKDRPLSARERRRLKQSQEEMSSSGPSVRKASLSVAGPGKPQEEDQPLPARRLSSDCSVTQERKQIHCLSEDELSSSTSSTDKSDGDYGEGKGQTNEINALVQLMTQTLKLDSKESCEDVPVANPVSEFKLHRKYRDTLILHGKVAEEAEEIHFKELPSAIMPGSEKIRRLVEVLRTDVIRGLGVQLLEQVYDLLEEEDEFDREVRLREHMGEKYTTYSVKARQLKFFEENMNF
Chain of Serine/threonine-protein kinase Nek6 (Homo sapiens) (Q9HC98 whole entry): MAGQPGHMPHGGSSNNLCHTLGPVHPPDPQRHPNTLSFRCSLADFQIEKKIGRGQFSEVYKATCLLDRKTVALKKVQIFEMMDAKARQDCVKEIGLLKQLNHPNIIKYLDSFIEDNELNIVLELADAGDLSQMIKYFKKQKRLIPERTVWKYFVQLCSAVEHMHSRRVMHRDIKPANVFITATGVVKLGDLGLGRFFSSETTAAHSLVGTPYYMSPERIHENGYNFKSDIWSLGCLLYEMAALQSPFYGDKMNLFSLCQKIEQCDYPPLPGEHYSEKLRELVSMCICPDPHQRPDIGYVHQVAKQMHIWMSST
Chain of Serine/threonine-protein kinase Nek7 (Homo sapiens) (Q8TDX7 whole entry, looked up): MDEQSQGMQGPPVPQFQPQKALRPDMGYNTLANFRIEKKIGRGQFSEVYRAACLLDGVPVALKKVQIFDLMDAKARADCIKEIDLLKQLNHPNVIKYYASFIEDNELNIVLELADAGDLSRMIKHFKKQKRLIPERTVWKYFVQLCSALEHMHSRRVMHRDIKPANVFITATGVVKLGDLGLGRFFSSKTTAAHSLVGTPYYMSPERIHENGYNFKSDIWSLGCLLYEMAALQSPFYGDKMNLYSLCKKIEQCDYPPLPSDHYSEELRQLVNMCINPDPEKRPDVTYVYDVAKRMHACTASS

Kd [2]: < 100 nM
Kd [3]: < 100 nM
Structure (SMILES): N#CCNC(=O)c1ccc(-c2ccnc(Nc3ccc(N4CCOCC4)cc3)n2)cc1 [MOMELOTINIB]
Kd [1]: < 100 nM
IC50 [4]: 100 nM

Structure (SMILES): CCCS(=O)(=O)Nc1ccc(F)c(C(=O)c2c[nH]c3ncc(-c4ccc(Cl)cc4)cc23)c1F [VEMURAFENIB]
% control [5]: 71%
% control [6]: 91%
% control [7]: 69%
% control [8]: 59%
% control [9]: 66%
% control [10]: 49%
Kd [11]: 5000 nM
% control [12]: 100%

inhibition [13]: 78%
Structure (SMILES): COCCOc1cc2c(-n3nc(-c4ccccn4)nc3N)ncnc2cc1OC

inhibition [14]: 47.5%
Structure (SMILES): Ic1ccc(Oc2cncc3sc(-c4nn[nH]n4)cc23)cc1

inhibition [15]: 6%
inhibition [16]: 10%
inhibition [17]: 38%
inhibition [18]: 5%
inhibition [20]: 4%
inhibition [21]: 9%
inhibition [23]: 8%
Structure (SMILES): COc1cc(Nc2ncc3c(C)nc(-c4cccc(C(F)(F)F)c4)n3n2)cc(OC)c1OC
inhibition [19]: 86%
inhibition [22]: 55%

inhibition [15]: 4%
inhibition [16]: 2%
inhibition [17]: 32%
inhibition [18]: 3%
inhibition [20]: 29%
inhibition [21]: 81%
inhibition [23]: 7%
Structure (SMILES): COc1cc(Nc2ncc3c(C)nc(-c4cccc(Oc5ccccc5)c4)n3n2)cc(OC)c1OC
inhibition [19]: -1%
inhibition [22]: 3%

inhibition [14]: 89.9%
IC50 [24]: 150 nM
Structure (SMILES): NC(=O)c1ccc(-c2ccc(Oc3cncc4sc(-c5nn[nH]n5)cc34)cc2)cc1

Source: ChEMBL document CHEMBL5252509, “In depth analysis of kinase cross screening data to identify chemical starting points for inhibition of the Nek family of kinases” (Medchemcomm, 2018)
